Measured values from patent US8530493B2, “Indolopyridines as Eg5 kinesin modulators” (4SC AG, priority 2006, dated 2013).

Key:
[1] = tested on: RKO p27 uninduced (proliferating) colon adenocarcinoma cells; assay: Alamar Blue cell viability assay, RKO p27 uninduced (proliferating); assay type: cell-based; conditions: Homo sapiens, RKOp27, Table B1, anti-proliferative/cytotoxic activity, 72 hours, read-out: −log EC50 RKO p27 uninduced (proliferating) (converted)
Method: The anti-proliferative/cytotoxic activity of the compounds described herein can be tested on subclones of RKO human colon adenocarcinoma cells (Schmidt et al., Oncogene 19, 2423-2429; 2000) using the Alamar Blue cell viability assay (described in O'Brien et al. Eur J Biochem 267, 5421-5426, 2000). The compounds are dissolved as 10 mM solutions in DMSO and subsequently diluted in semi-logarithmic steps. DMSO dilutions are further diluted 1:100 into Dulbecco's modified Eagle's medium (DMEM) containing 10% fetal calf serum to a final concentration twice as much as the final concentration in the test. RKO subclones are seeded into 96 well flat bottom plates at a density of 4000 cells per well in a volume of 50 μl per well. 24 hours after seeding the 50 μl each of the compound dilutions in DMEM medium are added into each well of the 96 well plate. Each compound dilution is tested as triplicates. Wells containing untreated control cells are filled with 50 μl DMEM medium containing 1% DMSO. The cells are then incubated with the substances for 72 hours at 37° C. in a humidified atmosphere containing 5% carbon dioxide. To determine the viability of the cells, 10 μl of an Alamar Blue solution (Biosource) are added and the fluorescence is measured at an extinction of 544 nm and an emission of 590 nm. For the calculation of the cell viability the emission value from untreated cells is set as 100% viability and the emission rates of treated cells are set in relation to the values of untreated cells. Viabilities are expressed as % values. The Graphpad Prism program is used for the calculation of EC50 values for anti-proliferative/cytotoxic activity out of the obtained dose-response curves.
(§1) To determine the cell cycle specific mode of action, subclones of RKO colon adenocarcinoma cells (RKOp21 or RKOp27 as described by Schmidt et al. in Oncogene 19, 2423-2429; 2000) are seeded into 96 well flat bottom plates at a density of 16000 cells per well in a volume of 50 μl per well in DMEM growth medium with 10% FCS containing 10 μM Ponasterone A. 24 hours after seeding the 50 μl each of the compound dilutions in DMEM medium are added into each well of the 96-well plate. Each compound dilution is tested as triplicates. Wells containing untreated control cells are filled with 50 μl DMEM medium containing 1% DMSO. The cells are then incubated with the substances for 72 hours at 37° C. in a humidified atmosphere containing 5% carbon dioxide. To determine the viability of the cells, 10 μl of an Alamar Blue solution (Biosource) are added and the fluorescence is measured at an extinction of 544 nm and an emission of 590 nm. For the calculation of the cell viability the emission value from untreated cells is set as 100% viability and the emission rates of treated cells are set in relation to the values of untreated cells. Viabilities are expressed as % values. The Graphpad Prism program (GraphPad Software, Inc) is used for the calculation of EC50 values out of the obtained dose-response curves. Viability is compared of proliferating cells grown in the absence of the inducer Ponasterone A, versus viability of cells arrested by the expression of ectopic p27Kip1 induced by Ponasterone A.
(§2) Representative values for anti-proliferation/cytotoxicity [measured as −log EC50 (mol/l)] determined in the aforementioned assays follow from the following tables B1, B2 and B3, in which the numbers of the compounds correspond to the numbers of the examples.

[2] = tested on: RKO p27 induced (arrested) colon adenocarcinoma cells; assay: Alamar Blue cell viability assay, RKO p27 induced by Ponasterone A (arrested); assay type: cell-based; conditions: Homo sapiens, RKOp27, Table B1, cells arrested by Ponasterone A-induced p27Kip1, 72 hours, read-out: −log EC50 RKO p27 induced (arrested) (converted)
Method: as §1, §2

| melting point | EC50 [2] | SMILES | EC50 [1] |
| --- | --- | --- | --- |
| 286 to 288 °C | ≥ 3160 nM | CN(C)CCN1C(=O)N2[C@H](c3cccc(O)c3)c3[nH]c4ccc(Br)cc4c3C[C@@]2(C)C1=O (racemic) [Example 8, (3aSR,10RS)-6-Bromo-2-(2-dimethylamino-ethyl)-10-(3-hydroxy-phenyl)-3a-methyl-3a,4,9,10-tetrahydro-2,9,10a-triaza-cyclopenta[b]fluorene-1,3-dione] | ≤ 39.8 nM |
|  | ≥ 3160 nM | CCN(C)CCN1C(=O)N2[C@H](c3cccc(O)c3)c3[nH]c4ccc(Cl)cc4c3C[C@@]2(C)C1=O (racemic) [Example 40, (3aSR,10RS)-6-Chloro-2-[2-(ethyl-methyl-amino)-ethyl]-10-(3-hydroxy-phenyl)-3a-methyl-3a,4,9,10-tetrahydro-2,9,10a-triaza-cyclopenta[b]fluorene-1,3-dione] | ≤ 39.8 nM |
|  | ≥ 3160 nM | CN(C)CCN1C(=O)N2[C@H](c3cccc(O)c3)c3[nH]c4ccc(OC(F)F)cc4c3C[C@@]2(C)C1=O (racemic) [Example 43, (3aSR,10RS)-6-(1,1-Difluoro-methoxy)-2-(2-dimethylamino-ethyl)-10-(3-hydroxy-phenyl)-3a-methyl-3a,4,9,10-tetrahydro-2,9,10a-triaza-cyclopenta[b]fluorene-1,3-dione] | ≤ 39.8 nM |
|  | ≥ 3160 nM | C[C@@]12Cc3c([nH]c4ccc(OC(F)F)cc34)[C@@H](c3cccc(O)c3)N1C(=O)N(CCN1CCC1)C2=O (racemic) [Example 44, (3aSR,10RS)-2-(2-Azetidin-1-yl-ethyl)-6-(1,1-difluoro-methoxy)-10-(3-hydroxy-phenyl)-3a-methyl-3a,4,9,10-tetrahydro-2,9,10a-triaza-cyclopenta[b]fluorene-1,3-dione] | ≤ 39.8 nM |
|  | ≥ 316 nM | CCOc1ccc2[nH]c3c(c2c1)C[C@@]1(C)C(=O)N(CCN)C(=O)N1[C@@H]3c1cccc(O)c1 (racemic) [Example 45, (3aSR,10RS)-2-(2-Amino-ethyl)-6-ethoxy-10-(3-hydroxy-phenyl)-3a-methyl-3a,4,9,10-tetrahydro-2,9,10a-triaza-cyclopenta[b]fluorene-1,3-dione] | ≤ 39.8 nM |
|  | ≥ 3160 nM | CCOc1ccc2[nH]c3c(c2c1)C[C@@]1(C)C(=O)N(CCN2CCC2)C(=O)N1[C@@H]3c1cccc(O)c1 (racemic) [Example 46, (3aSR,10RS)-2-(2-Azetidin-1-yl-ethyl)-6-ethoxy-10-(3-hydroxy-phenyl)-3a-methyl-3a,4,9,10-tetrahydro-2,9,10a-triaza-cyclopenta[b]fluorene-1,3-dione] | ≤ 39.8 nM |
|  | ≥ 3160 nM | COc1ccc2[nH]c3c(c2c1)C[C@@]1(C)C(=O)N(CCNCC2CC2)C(=O)N1[C@@H]3c1cccc(O)c1 (racemic) [Example 48, (3aSR,10RS)-2-[2-(Cyclopropylmethyl-amino)-ethyl]-10-(3-hydroxy-phenyl)-6-methoxy-3a-methyl-3a,4,9,10-tetrahydro-2,9,10a-triaza-cyclopenta[b]fluorene-1,3-dione] | ≤ 39.8 nM |

Further lines, the compound ahead of its results:

| SMILES | melting point | EC50 [2] | EC50 [1] |
| --- | --- | --- | --- |
| C[C@@]12Cc3c([nH]c4ccc(Cl)cc34)[C@@H](c3cccc(O)c3)N1C(=O)N(CCBr)C2=O (racemic) | 262 to 264 °C |  |  |
| CC(C)N(C)CCN1C(=O)N2[C@H](c3cccc(O)c3)c3[nH]c4ccc(Cl)cc4c3C[C@@]2(C)C1=O (racemic) [Example 39, (3aSR,10RS)-6-Chloro-10-(3-hydroxy-phenyl)-2-[2-(isopropyl-methyl-amino)-ethyl]-3a-methyl-3a,4,9,10-tetrahydro-2,9,10a-triaza-cyclopenta[b]fluorene-1,3-dione] |  | ≥ 3160 nM | ≤ 39.8 nM |
| CCOc1ccc2[nH]c3c(c2c1)C[C@@]1(C)C(=O)N(CCNC)C(=O)N1[C@@H]3c1cccc(O)c1 (racemic) [Example 41, (3aSR,10RS)-6-Ethoxy-10-(3-hydroxy-phenyl)-3a-methyl-2-(2-methylamino-ethyl)-3a,4,9,10-tetrahydro-2,9,10a-triaza-cyclopenta[b]fluorene-1,3-dione] |  | ≥ 3160 nM | ≤ 39.8 nM |
| CNCCN1C(=O)N2[C@H](c3cccc(O)c3)c3[nH]c4ccc(OC(F)F)cc4c3C[C@@]2(C)C1=O (racemic) [Example 42, (3aSR,10RS)-6-(1,1-Difluoro-methoxy)-10-(3-hydroxy-phenyl)-3a-methyl-2-(2-methylaminoethyl)-3a,4,9,10-tetrahydro-2,9,10a-triaza-cyclopenta[b]fluorene-1,3-dione] |  | ≥ 3160 nM | ≤ 39.8 nM |
| COc1ccc2[nH]c3c(c2c1)C[C@@]1(C)C(=O)N(CCNC(C)C)C(=O)N1[C@@H]3c1cccc(O)c1 (racemic) [Example 47, (3aSR,10RS)-10-(3-Hydroxy-phenyl)-2-(2-isopropylamino-ethyl)-6-methoxy-3a-methyl-3a,4,9,10-tetrahydro-2,9,10a-triaza-cyclopenta[b]fluorene-1,3-dione] |  | ≥ 3160 nM | ≤ 39.8 nM |
| COc1ccc2[nH]c3c(c2c1)C[C@@]1(C)C(=O)N(CCNCC(C)C)C(=O)N1[C@@H]3c1cccc(O)c1 (racemic) [Example 49, (3aSR,10RS)-10-(3-Hydroxy-phenyl)-2-(2-isobutylamino-ethyl)-6-methoxy-3a-methyl-3a,4,9,10-tetrahydro-2,9,10a-triaza-cyclopenta[b]fluorene-1,3-dione] |  | ≥ 3160 nM | ≤ 39.8 nM |
| COc1ccc2[nH]c3c(c2c1)C[C@@]1(C)C(=O)N(CCNC2CCC2)C(=O)N1[C@@H]3c1cccc(O)c1 (racemic) [Example 50, (3aSR,10RS)-2-(2-Cyclobutylamino-ethyl)-10-(3-hydroxy-phenyl)-6-methoxy-3a-methyl-3a,4,9,10-tetrahydro-2,9,10a-triaza-cyclopenta[b]fluorene-1,3-dione] |  | ≥ 3160 nM | ≤ 39.8 nM |
| CCNCCCN1C(=O)N2[C@H](c3cccc(O)c3)c3[nH]c4ccc(OC)cc4c3C[C@@]2(C)C1=O (racemic) [Example 51, (3aSR,10RS)-2-(3-Ethylamino-propyl)-10-(3-hydroxy-phenyl)-6-methoxy-3a-methyl-3a,4,9,10-tetrahydro-2,9,10a-triaza-cyclopenta[b]fluorene-1,3-dione] |  | ≥ 3160 nM | ≤ 39.8 nM |
| CCN(C)CCN1C(=O)N2[C@H](c3cccc(O)c3)c3[nH]c4ccc(OC)cc4c3C[C@@]2(C)C1=O (racemic) [Example 52, (3aSR,10RS)-2-[2-(Ethyl-methyl-amino)-ethyl]-10-(3-hydroxy-phenyl)-6-methoxy-3a-methyl-3a,4,9,10-tetrahydro-2,9,10a-triaza-cyclopenta[b]fluorene-1,3-dione] |  | ≥ 3160 nM | ≤ 39.8 nM |
| COc1ccc2[nH]c3c(c2c1)C[C@@]1(C)C(=O)N(CCNC2CC2)C(=O)N1[C@@H]3c1cccc(O)c1 (racemic) [Example 53, (3aSR,10RS)-2-(2-Cyclopropylamino-ethyl)-10-(3-hydroxy-phenyl)-6-methoxy-3a-methyl-3a,4,9,10-tetrahydro-2,9,10a-triaza-cyclopenta[b]fluorene-1,3-dione] |  | ≥ 3160 nM | ≤ 39.8 nM |
| COc1ccc2[nH]c3c(c2c1)C[C@@]1(C)C(=O)N(CCN(C)C)C(=O)N1[C@@H]3c1cccc(O)c1 (single isomer, unassigned) [Example 7b, (−)-2-(2-Dimethylamino-ethyl)-10-(3-hydroxy-phenyl)-6-methoxy-3a-methyl-3a,4,9,10-tetrahydro-2,9,10a-triaza-cyclopenta[b]fluorene-1,3-dione] |  | ≥ 3160 nM | ≤ 39.8 nM |
